Earlier results as cited in patent US20220347313A1, “Combination Anti-CD30 ADC, Anti-PD-1 and Chemotherapeutic for Treatment of Hematopoietic Cancers” (SEAGEN, INC., priority 2019, published 2022).

System: CD28, ICOS, CTLA-4 and BTLA

nivolumab
binding specificity for PD-1 versus related CD28 family members: binds specifically to PD-1 and not to related members of the CD28 family
